Experiment: Solubility of FDKP as a function of pH
Format: physicochemical

SMILES: O=C(O)/C=C/C(=O)NCCCCC1NC(=O)C(CCCCNC(=O)/C=C/C(=O)O)NC1=O (centres unmarked) [FDKP, 3,6-bis(N-fumaryl-4-aminobutyl)-2,5-diketopiperazine]
- solubility (at neutral or basic pH): readily soluble
- solubility (in acid): low solubility
